Test results: US9253983B2, “Triazole compound and use thereof” (KUREHA CORPORATION, priority 2011, dated 2016)

Columns and labels:
[1] = system: Erysiphe graminis f. sp tritici; test: Controlling effect on wheat powdery mildew by foliage spray treatment (Tests 1 and 2); format: in vivo; conditions: foliage spray 12.5 mg/L, 1,000 L/ha
Source text: The suspension was sprayed at 1,000 L/ha to leaves of wheat plants (cultivar: NORIN No. 61) in their second leaf stage. The wheat plants had been grown in square plastic pots (6 cm×6 cm). After the suspension was left to dry, the plants were inoculated with Erysiphe graminis f. sp tritici taken from wheat plants infected with wheat powdery mildew, by sprinkling. 8 days and 11 days after the inoculation, the lesion degree of the wheat powdery mildew was examined in accordance with the criteria shown in Table 4. The protective values were found in the same way as in Experiment Example 2.
The suspension was sprayed at 1,000 L/ha to leaves of wheat plants (cultivar: NORIN No. 61) in their second leaf stage. The wheat plants had been grown in square plastic pots (6 cm×6 cm). After the leaves were air-dried, they were inoculated with Erysiphe graminis f. sp tritici taken from wheat plants infected with wheat powdery mildew, by sprinkling. 8 days after the inoculation, the lesion degree of the wheat powdery mildew was examined. The protective values were calculated as were in Experiment Example 1.

Alternaria alternata = test: Test 1 for antifungal effect, plate medium: A.m; format: cell-based; conditions: PDA plate medium
Procedure: (§1) Compound (1-1a) or Compound (1-2a) was dissolved in dimethyl sulfoxide, and the resulting solution was added to a PDA medium (potato dextrose-agar medium) at about 60° C. The medium and the solution were mixed thoroughly in a conical flask, poured into a petri dish, and allowed to solidify. In this way, a plate medium containing Compound (1-1a) or Compound (1-2a) at a certain concentration was prepared.
(§2) Meanwhile, test microorganisms cultured on a plate medium in advance were cut out with the use of a cork borer 4 mm in diameter, and were inoculated onto the compound-containing plate medium. After the inoculation, the microorganisms were cultured at their optimum growth temperatures (for example, refer to LIST OF CULTURES 1996 microorganisms 10th edition, Institute for Fermentation (foundation)) for 1 day to 7 days, and their growth was determined by measuring the diameter of their flora. The extent of growth of the microorganisms on the compound-containing plate medium was compared with that of microorganisms on a plate medium where no compound was added, and mycelial growth inhibition rate was calculated by the following equation: R=100(dc−dt)/dc where R is mycelial growth inhibition rate (%), dc is the flora diameter in untreated plate, and dt is the flora diameter in plate treated with the compound.
(§3) A larger antifungal index indicates a better antifungal effect.

Rhizoctonia solani = test: Test 1 for antifungal effect, plate medium: R.s; format: cell-based; conditions: PDA plate medium
Procedure: as §1, §2, §3

rice plant [2] = test: Growth inhibition (adverse effects) of seed treatment on rice plant seeds; format: in vivo; conditions: treatment amount 80 g ai/100 kg seeds, 20 days after sowing
Procedure: A pot experiment was performed to evaluate the growth inhibition (adverse effects) caused by the seed treatment. Compound (1-1a) and Compound (1-2a), each of which was dissolved in DMSO to make up such a concentration that the seeds would be treated in treatment amount of 2 g to 200 g ai/100 kg seeds, were each applied to wheat seeds in a vial, and thereafter 8 wheat seeds were sowed in an 80-cm^2 pot. The pot was kept in a greenhouse with water supplied to its bottom. 20 days after the sowing, a growth measure of wheat was evaluated. A growth inhibition index was calculated based on the criteria shown by Table 10. In Table 10, a smaller growth inhibition index indicates a lesser adverse effect of growth inhibition caused by the treatment with the use of a plant disease controlling agent.
(§4) A pot experiment was performed to evaluate the growth inhibition (adverse effects) caused by the seed treatment. Compound (1-1a), which was dissolved in DMSO to make up such a concentration that the seeds would be treated in treatment amount of 80 g ai/100 kg seeds, was applied to rice plant seeds in a vial, and thereafter 16 rice plant seeds were sowed in a 50-cm^2 pot. The pot was kept in a greenhouse with water supplied to its bottom. 20 days after the sowing, a growth measure of rice plant was evaluated. A growth inhibition index was calculated as was in Experiment Example 5.

rice Bakanae disease = test: Efficacy of seed treatment on rice Bakanae disease; format: in vivo, Gibberella fujikuroi; conditions: rice seed treatment 80 g ai/100 kg seeds, 20 days after sowing
Procedure: A pot experiment was performed to evaluate the effectiveness of the seed treatment in controlling rice Bakanae disease. Compound (1-1a), which was dissolved in DMSO to make up such a concentration that the seeds would be treated in treatment amount of 80 g ai/100 kg seeds, was applied in a vial to seeds of a rice plant infected with rice Bakanae disease, and thereafter 16 rice plant seeds were sowed in a 50-cm^2 pot. The pot was kept in a greenhouse with water supplied to its bottom. 20 days after the sowing, examination was conducted on the percentage of seedlings infected with […]. Then, protective values were calculated as were in Experiment Example 4.

rice plant [3] = test: Necrosis (adverse effects) of seed treatment on rice plant seeds; format: in vivo; conditions: treatment amount 80 g ai/100 kg seeds, 20 days after sowing
Procedure: A pot experiment was performed to evaluate necrosis (adverse effects) caused by the seed treatment. Compound (1-1a) and Compound (1-2a), each which was dissolved in DMSO to make up such a concentration that the seeds would be treated in treatment amount of 2 g to 200 g ai/100 kg seeds, were each applied to wheat seeds in a vial, and thereafter 8 wheat seeds were sowed in an 80-cm^2 pot. The pot was kept in a greenhouse with water supplied to its bottom. 20 days after the sowing, an extent of necrosis (percentage of necrotic surface area) of wheat was evaluated. A necrosis index was derived from the percentage of the necrotic surface area, based on the criteria shown by Table 13. In Table 13, a smaller necrosis index indicates a lesser adverse effect of necrosis caused by the treatment with the use of a plant disease controlling agent.
as §4, with “necrosis” for “the growth inhibition”, “The pot was kept in a greenhouse with water supplied to its bottom.” left out, “an extent of necrosis (percentage of necrotic surface area)” for “a growth measure”, “necrosis” for “growth inhibition”, “6.” for “5.”

[4] = system: Pseudocercoporella herpotrichoides; test: Test 1 for antifungal effect, plate medium: P.h; format: cell-based; conditions: PDA plate medium
Procedure: as §1, §2, §3

Cercospora beticola = test: Test 1 for antifungal effect, plate medium: C.b; format: cell-based; conditions: PDA plate medium
Procedure: as §1, §2, §3

Row | SMILES | Protective value (%) (8 days after treatment) [1] | Protective value (%) (11 days after treatment) [1] | Antifungal index (mycelial growth inhibition rate) (Alternaria alternata; 0.16 mg/L) | Antifungal index (mycelial growth inhibition rate) (Alternaria alternata; 0.31 mg/L) | Antifungal index (mycelial growth inhibition rate) (Alternaria alternata; 0.63 mg/L) | Antifungal index (mycelial growth inhibition rate) (Alternaria alternata; 1.25 mg/L) | Antifungal index (mycelial growth inhibition rate) (Alternaria alternata; 2.50 mg/L) | Antifungal index (mycelial growth inhibition rate) (Rhizoctonia solani; 0.16 mg/L) | Antifungal index (mycelial growth inhibition rate) (Rhizoctonia solani; 0.31 mg/L) | Antifungal index (mycelial growth inhibition rate) (Rhizoctonia solani; 0.63 mg/L) | Antifungal index (mycelial growth inhibition rate) (Rhizoctonia solani; 1.25 mg/L) | Antifungal index (mycelial growth inhibition rate) (Rhizoctonia solani; 2.50 mg/L) | Growth inhibition index (rice plant [2]) | Protective value (%) (rice Bakanae disease) | Necrosis index (rice plant [3]) | Antifungal index (mycelial growth inhibition rate) ([4]; 0.16 mg/L) | Antifungal index (mycelial growth inhibition rate) ([4]; 0.31 mg/L) | Antifungal index (mycelial growth inhibition rate) ([4]; 0.63 mg/L) | Antifungal index (mycelial growth inhibition rate) ([4]; 1.25 mg/L) | Antifungal index (mycelial growth inhibition rate) ([4]; 2.50 mg/L) | further results
1 | CC1(CCl)CCC(Cc2ccc(Cl)cc2)C1(O)Cn1cncn1 (single isomer, unassigned) [Compound (1-1b), (1,2-cis, 1,5-cis)-5-(4-chlorobenzyl)-2-chloromethyl-2-methyl-1-(1H-1,2,4-triazole-1-ylmethyl)cyclopentanol] | 71% | 58% | 1 (Less than 60%) | 3 (Less than 80% but not less than 70%) | 4 (Less than 90% but not less than 80%) | 4 (Less than 90% but not less than 80%) | 5 (90% or greater) | 1 (Less than 60%) | 1 (Less than 60%) | 2 (Less than 70% but not less than 60%) | 2 (Less than 70% but not less than 60%) | 2 (Less than 70% but not less than 60%) | 4 (Less than 20% but 10% or more) | 66% | 2 (Less than 20% but not less than 5%) | 1 (Less than 60%) | 1 (Less than 60%) | 2 (Less than 70% but not less than 60%) | 3 (Less than 80% but not less than 70%) | 4 (Less than 90% but not less than 80%) | Antifungal index (mycelial growth inhibition rate) (Cercospora beticola; 0.16 mg/L): 3 (Less than 80% but not less than 70%); Antifungal index (mycelial growth inhibition rate) (Cercospora beticola; 0.31 mg/L): 4 (Less than 90% but not less than 80%); Antifungal index (mycelial growth inhibition rate) (Cercospora beticola; 0.63 mg/L): 5 (90% or greater); Antifungal index (mycelial growth inhibition rate) (Cercospora beticola; 1.25 mg/L): 5 (90% or greater); Antifungal index (mycelial growth inhibition rate) (Cercospora beticola; 2.50 mg/L): 5 (90% or greater)
2 | CC1(CCl)CCC(Cc2ccc(Cl)cc2)C1(O)Cn1cncn1 (single isomer, unassigned) [Compound (1-1a), (1,2-cis, 1,5-cis)-5-(4-chlorobenzyl)-2-chloromethyl-2-methyl-1-(1H-1,2,4-triazole-1-ylmethyl)cyclopentanol] | 96% | 84% | 1 (Less than 60%) | 4 (Less than 90% but not less than 80%) | 4 (Less than 90% but not less than 80%) | 5 (90% or greater) | 5 (90% or greater) | 2 (Less than 70% but not less than 60%) | 2 (Less than 70% but not less than 60%) | 2 (Less than 70% but not less than 60%) | 2 (Less than 70% but not less than 60%) | 3 (Less than 80% but not less than 70%) | 0 (50% or more) | 100% | 0 (Less than 1%) | 1 (Less than 60%) | 5 (90% or greater) | 5 (90% or greater) | 5 (90% or greater) | 5 (90% or greater) | Antifungal index (mycelial growth inhibition rate) (Cercospora beticola; 0.16 mg/L): 4 (Less than 90% but not less than 80%); Antifungal index (mycelial growth inhibition rate) (Cercospora beticola; 0.31 mg/L): 5 (90% or greater); Antifungal index (mycelial growth inhibition rate) (Cercospora beticola; 0.63 mg/L): 5 (90% or greater); Antifungal index (mycelial growth inhibition rate) (Cercospora beticola; 1.25 mg/L): 5 (90% or greater); Antifungal index (mycelial growth inhibition rate) (Cercospora beticola; 2.50 mg/L): 5 (90% or greater)
